{"source": "patent US5608095A", "about": "“Alkyl-4-silyl-phenols and esters thereof as antiatherosclerotic agents” (Hoechst Marion Roussel, Inc., priority 1996, dated 1997)", "key": {"[1]": {"system": "serum cholesterol, LDL, HDL, triglycerides", "assay": "Serum lipids and lipoprotein cholesterol in cholesterol-fed female New Zealand White rabbits", "type": "in vivo", "conditions": "Oryctolagus cuniculus, po, 168 h, rabbit serum, diet 0.4%, 7 days", "method": "(§1) Five independent experiments were performed in the following manner. […] Female New Zealand White rabbits (Hazelton, ~2.0-2.3 kg) were fed 0.2% cholesterol enriched rabbit chow (Purina #5322) with or without 0.4% MDL compound (except, MDL 108,804 at 0.26% and MDL 103,491 repeated at 0.6%). The MDL compounds were solubilized in 100% ethanol. MDL 108,208 was not soluble in 100% ethanol, but it was soluble in diethyl ether:ethanol (3:2 by volume). The chow was sprayed with the MDL mixtures and allowed to dry overnight in a chemical fume hood. Control chow was sprayed with ethanol. Rabbits were fed 100 grams food per day for 7 days (0.6% MDL 103,491 were fed for 14 days); water was available ad libitum. On day 7, rabbits (fasted overnight) were bled (~2 mL) from marginal ear vein; 0.6% MDL 103,491 treated rabbits were tested on day 14. They were euthanized by carbon dioxide overdose. The total body and liver weights were recorded in grams. Food consumption was recorded as grams.cndot.day^-1 .cndot.rabbit^-1. Aliquots of fresh serum were used for clinical chemistries, lipoprotein cholesterol determination, thiobarbituric acid reactive substances (TBARS) and compound and metabolite concentrations in serum. Livers (~5 gram aliquots) were frozen at -20° C. for compound and metabolite concentration determination at a later time.\nBlood was allowed to clot at room temperature for 30 minutes. Serum was obtained after centrifugation for 10 min at 5° C. at 3000 rpm in a Beckman GPKR centrifuge with a GH rotor. Fresh serum was analyzed by a COBAS MIRA autoanalyzer (Roche Diagnostics) using Roche diagnostic reagents for total cholesterol (CHOL, kit #44334) and triglyceride (TG, kit #44120). Cholesterol and triglycerides were calculated as mg/dL.\nLipoprotein fractions (very low density lipoprotein, VLDL, low density lipoprotein, LDL and high density lipoprotein, HDL) were separated on a Sepharose 6HR column (1×30 cm, Pharmacia) attached to a Waters Powerline HPLC system. Fifty μL of serum were injected onto the column and eluted with phosphate buffered saline, pH 7.4, at a flow rate of 0.5 mL/min. Cholesterol reagent (Roche Diagnostics, kit #44334, diluted with 20 mL water and then with 20 mL of 0.9% saline) was added at 0.2 mL/min to the post column eluant and incubated in a knitted PFTE Kratos reaction coil (Applied Biosystems) at 37° C. for 5 min. Absorbance was measured at 500 nm. The lipoprotein subfractions were quantitated as follows: [formula]"}, "[2]": {"assay": "Solubility in solvent for spraying on chow", "type": "physicochemical", "method": "as §1"}, "[3]": {"assay": "Food consumption, body and liver weight in cholesterol-fed rabbits", "type": "in vivo, female New Zealand White rabbits", "conditions": "diet 0.4%, 7 days", "method": "as §1"}, "[4]": {"system": "oxidation of serum lipids", "assay": "TBARS assay, serum of cholesterol-fed rabbits", "type": "in vivo, female New Zealand White rabbits", "conditions": "Oryctolagus cuniculus, po, 168 h; rabbit serum, diet 0.4%, 7 days; read-out: TBARS, percent of control", "method": "as §1\nTBARS are a qualitative indication of the oxidation of lipids in a sample. In this assay the oxidation of serum lipids is initiated with CuSO4, resulting in the formation of aldehydes, such as malondialdehyde (MDA). Upon incubation with thiobarbituric acid, the absorbance of the aldehydes can be detected at 530-540 nm. TBARS values which are lower than control serum values indicate the relative ability of a compound to inhibit the oxidation. TBARS were measured as follows: 50 μL of serum were mixed with 50 μL of 0.9% saline and 400 μL of a 5 mM CuSO4 solution and incubated at 37° C. for 5 hr. The reactions were stopped by addition of 1.0 mL of 20% trichloroacetic acid. Then 1.0 mL of 0.67% thiobarbituric acid in 0.05N sodium hydroxide was added, mixed, and the samples incubated for 30 min at 90° C. Samples were centrifuged briefly to pellet undissolved material, and the supernatants were transferred to a 96-well microtiter plate. Absorbances were measured at 540 nm using a Biotek model EL311 microplate reader. The nmoles of MDA produced were calculated from a standard curve of 0 to 10 nmoles of MDA prepared from malonaldehyde bis(dimethylacetal). Serum samples from treated rabbits were compared to serum samples from control rabbits that received no MDL compound."}, "[5]": {"assay": "HPLC quantitation of compound and metabolite concentration in rabbit serum and liver", "type": "in vivo, female New Zealand White rabbits", "conditions": "diet 0.4%, 7 days", "method": "as §1\nSerum and liver concentrations of parent compounds and the metabolites, bisphenol and diphenoquinone, were determined by reverse phase HPLC using a Waters 990 Powerline system. Livers (1 gram) were homogenized with 5.0 mL PBS, pH 7.4, using a Polytron tissue homogenizer at setting 5 for 20-30 seconds. Serum or liver homogenates were extracted as follows: 100 μL of either serum or homogenate were added to 2.0 mL diethyl ether:ethanol (3:1) while vortexing the tube. The sample tubes were capped and centrifuged for 10 min at 5° C. at 3500 rpm in a Beckman GPKR centrifuge with a GH 3.7 rotor. The supernatants were transferred to clean tubes and dried under N2. Samples were reconstituted with 200 μL of acetonitrile:hexane:0.1M ammonium acetate (90:6.5:3.5, by vol.). Then, 100 μL were injected onto a Waters Deltapak C18-300 Å column, and eluted with an 83% acetonitrile:17% water mobile phase at a flow rate of 1.5 mL/min. Absrobances at the wavelengths of 240, 254, and 420 nm were recorded. Compound concentrations were calculated from known quantities of authentic parent compounds after correction for recovery; the range of recovery from spiked samples was 40 to 100%. The lowest detectable limit for this class of compounds was ~0.5 μg/mL. Concentrations were calculated as μg/mL of serum and μg/g of liver."}}, "note": "Where two headings read alike, the source gives them in different places.", "data": [{"smiles": "COc1ccc([Si](C)(COc2cc(C(C)(C)C)c(O)c(C(C)(C)C)c2)c2ccc(OC)cc2)cc1", "note": "[MDL 108,208]", "values": [{"measurement": "response vs control in vivo at 0.4 %", "setting": "[1]; read-out: HDL cholesterol, percent of control", "result": 97, "unit": "%"}, {"measurement": "response vs control in vivo at 0.4 %", "setting": "[1]; read-out: LDL cholesterol, percent of control", "result": 117, "unit": "%"}, {"measurement": "response vs control in vivo at 0.4 %", "setting": "[1]; read-out: TRIG (triglycerides), percent of control", "result": 107, "unit": "%"}, {"measurement": "response vs control in vivo at 0.4 %", "setting": "[1]; read-out: chol tot. (total cholesterol), percent of control", "result": 109, "unit": "%"}, {"measurement": "solubility in 100% ethanol", "setting": "[2]; 100% ethanol", "result": "not soluble"}, {"measurement": "solubility in diethyl ether:ethanol", "setting": "[2]; diethyl ether:ethanol (3:2 by volume)", "result": "soluble"}, {"measurement": "food (grams eaten per day per rabbit), percent of control", "setting": "[3]", "result": 100, "unit": "%"}, {"measurement": "body wt., percent of control", "setting": "[3]; rabbit", "result": 97, "unit": "%"}, {"measurement": "lw/bw (liver weight/body weight), percent of control", "setting": "[3]; rabbit", "result": 103, "unit": "%"}, {"measurement": "response vs control in vivo at 0.4 %", "setting": "[4]", "result": 89, "unit": "%"}, {"measurement": "Liver Parent = parent compound concentration", "setting": "[5]; rabbit liver", "result": 0, "unit": "µg/g"}, {"measurement": "Serum Parent = parent compound concentration", "setting": "[5]; rabbit serum", "result": 0, "unit": "µg/mL"}]}]}
